# Measured values from patent US8362000B2, “Azetidinyl diamides as monoacylglycerol lipase inhibitors” (Janssen Pharmaceutica NV, priority 2009, dated 2013).
# Where a chain is given by its changes, count along the chain named. Read-outs that look alike come from different tables or passages of the source.
# Key:
# MGL = target: T1, MGL (Rattus norvegicus, UniProt Q8R431); test: 2-AG accumulation assay in rat brain homogenate; assay type: biochemical; settings: rat brain homogenate; compound 10 μM; 2-AG accumulation as percent of vehicle; read-out: Rat Brain 2AG % VehCntrl (%) @ 10 μM
# T1 construct: one g rat brain was homogenized using a Polytron homogenizer; from tissue; host or cells: rat brain homogenate
# T1 sequence (Q8R431 1-303): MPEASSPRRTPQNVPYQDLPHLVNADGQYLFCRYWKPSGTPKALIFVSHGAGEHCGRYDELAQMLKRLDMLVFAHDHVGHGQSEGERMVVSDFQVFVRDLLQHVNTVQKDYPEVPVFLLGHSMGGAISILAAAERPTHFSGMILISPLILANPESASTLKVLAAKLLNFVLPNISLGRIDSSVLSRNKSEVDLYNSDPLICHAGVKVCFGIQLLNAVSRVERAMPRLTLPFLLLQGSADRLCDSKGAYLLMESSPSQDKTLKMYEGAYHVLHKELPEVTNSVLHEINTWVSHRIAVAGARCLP
# mutant MGL = target: T2, mutant MGL (Homo sapiens, UniProt Q99685, L169S/L176S); test: MGL ThermoFluor assay - mutant; assay type: binding
# T2 sequence (Q99685 1-303 L169S/L176S): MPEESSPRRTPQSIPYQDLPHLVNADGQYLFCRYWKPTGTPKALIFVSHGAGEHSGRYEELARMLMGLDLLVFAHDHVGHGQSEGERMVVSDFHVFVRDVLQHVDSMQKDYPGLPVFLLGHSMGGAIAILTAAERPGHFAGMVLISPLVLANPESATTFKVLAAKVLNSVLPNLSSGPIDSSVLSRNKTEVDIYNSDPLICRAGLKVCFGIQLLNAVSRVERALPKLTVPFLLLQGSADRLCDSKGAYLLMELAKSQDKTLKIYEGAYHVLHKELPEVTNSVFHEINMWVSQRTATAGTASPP
# [1] = target: T3, purified wild type MGL (wt-MGLL 6H-11-313) (Homo sapiens, UniProt Q99685)
# T3 sequence (Q99685 1-303): T2 sequence (Q99685 1-303 L169S/L176S) with S169L, S176L
# [2] = ThermoFluor, compound concentration measured by qNMR, read-out: MGL mutant ThermoFluor qKd (μM) (using qNMR conc.)
# [3] = ThermoFluor concentration-response, read-out: MGL mutant ThermoFluor Kd
# [4] = ThermoFluor thermal stability binding assay, read-out: MGL mutant ThermoFluor Kd
SMILES,"2-AG accumulation, % of vehicle control at 10 µM (MGL) [%]",Kd (mutant MGL; [2]) [µM],IC50 [1] [µM],Kd (mutant MGL; [4]) [µM],other results
"O=C(c1ccccc1)N1CC(N2CCN(C(=O)c3ccc(-c4ccccc4)cc3)C(c3ccccc3)C2)C1 (centres unmarked) [Cpd 44, 1-(Biphenyl-4-ylcarbonyl)-2-phenyl-4-[1-(phenylcarbonyl)azetidin-3-yl]piperazine]",238,,,,
"O=C(c1ccccc1)N1CCN(C2CN(C(=O)c3ccc(-c4ccc(C(F)(F)F)cc4)cc3)C2)CC1 [Cpd 75, 1-(Phenylcarbonyl)-4-(1-{[4′-(trifluoromethyl)biphenyl-4-yl]carbonyl}azetidin-3-yl)piperazine]",193,,,,
"Cc1c(C(=O)N2CC(N3CCN(C(=O)c4ccccc4)CC3)C2)sc2ccc(Cl)cc12 [Cpd 120, 1-{1-[(5-Chloro-3-methyl-1-benzothiophen-2-yl)carbonyl]azetidin-3-yl}-4-(phenylcarbonyl)piperazine]",483,,,,
"O=C(c1ccccc1)N1CCN(C2CN(C(=O)c3ccc4c(ccn4-c4ccccc4)c3)C2)CC1 [Cpd 128, 1-Phenyl-5-({3-[4-(phenylcarbonyl)piperazin-1-yl]azetidin-1-yl}carbonyl)-1H-indole]",688,,,,
"Cc1nc(-c2cccs2)sc1C(=O)N1CC(N2CCN(C(=O)c3nccs3)CC2)C1 [Cpd 134, 1-{1-[(4-Methyl-2-thiophen-2-yl-1,3-thiazol-5-yl)carbonyl]azetidin-3-yl}-4-(1,3-thiazol-2-ylcarbonyl)piperazine]",582,,,,
"Cc1ccc(-c2nc(C)c(C(=O)N3CC(N4CCN(C(=O)c5nccs5)CC4)C3)s2)cc1 [Cpd 135, 1-(1-{[4-Methyl-2-(4-methylphenyl)-1,3-thiazol-5-yl]carbonyl}azetidin-3-yl)-4-(1,3-thiazol-2-ylcarbonyl)piperazine]",592,,,,
"Cc1nc(-c2ccc(C(F)(F)F)cc2)sc1C(=O)N1CC(N2CCN(C(=O)c3nccs3)CC2)C1 [Cpd 136, 1-[1-({4-Methyl-2-[4-(trifluoromethyl)phenyl]-1,3-thiazol-5-yl}carbonyl)azetidin-3-yl]-4-(1,3-thiazol-2-ylcarbonyl)piperazine]",612,,,,
"O=C(c1cccc(-c2cccs2)c1)N1CC(N2CCN(C(=O)c3nccs3)CC2)C1 [Cpd 137, 1-(1,3-Thiazol-2-ylcarbonyl)-4-{1-[(3-thiophen-2-ylphenyl)carbonyl]azetidin-3-yl}piperazine]",441,,,,
"O=C(c1ccc(-c2cccs2)cc1)N1CC(N2CCN(C(=O)c3nccs3)CC2)C1 [Cpd 138, 1-(1,3-Thiazol-2-ylcarbonyl)-4-{1-[(4-thiophen-2-ylphenyl)carbonyl]azetidin-3-yl}piperazine]",661,,,,
"O=C(c1ccc(-c2ccccc2C(F)(F)F)cc1)N1CC(N2CCN(C(=O)c3nccs3)CC2)C1 [Cpd 147, 1-(1,3-Thiazol-2-ylcarbonyl)-4-(1-{[2′-(trifluoromethyl)biphenyl-4-yl]carbonyl}azetidin-3-yl)piperazine]",676,,,,
"Cc1ccc(F)cc1-c1ccc(C(=O)N2CC(N3CCN(C(=O)c4nccs4)CC3)C2)cc1 [Cpd 177, 1-{1-[(5′-Fluoro-2′-methylbiphenyl-4-yl)carbonyl]azetidin-3-yl}-4-(1,3-thiazol-2-ylcarbonyl)piperazine]",768,,,,
"O=C(c1ccc(-c2ccc(F)cc2F)cc1)N1CC(N2CCN(C(=O)c3nccs3)CC2)C1 [Cpd 179, 1-{1-[(2′,4′-Difluorobiphenyl-4-yl)carbonyl]azetidin-3-yl}-4-(1,3-thiazol-2-ylcarbonyl)piperazine]",910,,,,
"COc1cccc(-c2ccc(C(=O)N3CC(N4CCN(C(=O)c5nccs5)CC4)C3)cc2)c1 [Cpd 180, 1-{1-[(3′-Methoxybiphenyl-4-yl)carbonyl]azetidin-3-yl}-4-(1,3-thiazol-2-ylcarbonyl)piperazine]",703,,,,
O=C(c1cccc(F)c1)N1CCN(C2CN(C(=O)c3ccc4c(ccn4-c4ccc(F)cc4)c3)C2)CC1 [Cpd 1424],,0.124,0.075,,
O=C(c1ccc2c(ccn2-c2ccc(F)cc2)c1)N1CC(N2CCN(C(=O)c3ccc(Cl)o3)CC2)C1 [Cpd 1425],,0.019,0.009,,
O=C(c1ccc2c(ccn2-c2ccc(F)cc2)c1)N1CC(N2CCN(C(=O)c3ncco3)CC2)C1 [Cpd 1426],,0.029,< 0.005,,
O=C(c1ccc2c(ccn2-c2ccc(F)cc2)c1)N1CC(N2CCN(C(=O)c3ccc(F)s3)CC2)C1 [Cpd 1427],,0.01,0.006,,
O=C(c1ccc2c(ccn2-c2ccc(F)cc2)c1)N1CC(N2CCN(C(=O)c3cocn3)CC2)C1 [Cpd 1428],,0.018,0.014,,
O=C(c1ccc2c(ccn2-c2ccc(F)cc2)c1)N1CC(N2CCN(C(=O)c3cnco3)CC2)C1 [Cpd 1429],,0.097,0.036,,
"O=C(c1ccc2c(c1)C(Cc1cccc(C(F)(F)F)c1)(Cc1cccc(C(F)(F)F)c1)C(=O)N2Cc1cccc(C(F)(F)F)c1)N1CC(N2CCN(C(=O)c3nccs3)CC2)C1 [Cpd 1430, 5-({3-[4-(1,3-Thiazol-2-ylcarbonyl)piperazin-1-yl]azetidin-1-yl}carbonyl)-1,3,3-tris[3-(trifluoromethyl)benzyl]-1,3-dihydro-2H-indol-2-one]",,,9.89,,Kd (mutant MGL; [3]): 50 µM

SMILES,"2-AG accumulation, % of vehicle control at 10 µM (MGL) [%]",Kd (mutant MGL; [2]) [µM],IC50 [1] [µM],Kd (mutant MGL; [4]) [µM],other results
O=C(CN1C(=O)c2ccccc2S1(=O)=O)N1CC(N2CCN(C(=O)c3nccs3)CC2)C1 [Cpd 1432],,> 28.4,> 16.7,,
O=C(CCCc1ccccc1)N1CC(N2CCN(C(=O)c3nccs3)CC2)C1 [Cpd 1434],,,> 16.7,53.8,
O=C(c1ccccc1)N1CCc2cccc(C(=O)N3CC(N4CCN(C(=O)c5nccs5)CC4)C3)c2C1 [Cpd 1437],,,> 16.7,33.3,
O=C(c1nc2cc(F)ccc2[nH]1)N1CC(N2CCN(C(=O)c3nccs3)CC2)C1 [Cpd 1443],,,> 16.7,> 31.2,
O=C(c1cscn1)N1CCN(C2CN(C(=O)c3cc4cc(Cl)ccc4o3)C2)CC1 [Cpd 1444],,,> 16.7,> 31,
O=C(c1cc2ccc(C(F)(F)F)cc2[nH]1)N1CC(N2CCN(C(=O)c3ccns3)CC2)C1 [Cpd 1445],,,> 16.7,> 31.2,
O=C(c1ccc[nH]1)N1CCN(C2CN(C(=O)c3cc4ccc(C(F)(F)F)nc4o3)C2)CC1 [Cpd 1446],,,> 16.7,62.5,
O=C(c1ccc[nH]1)N1CCN(C2CN(C(=O)c3cc4ccc(C(F)(F)F)nc4[nH]3)C2)CC1 [Cpd 1447],,3.33,> 16.7,,
O=C(c1cscn1)N1CCN(C2CN(C(=O)c3cc4cc(Br)cnc4o3)C2)CC1 [Cpd 1448],,,> 16.7,7.09,
O=C(c1cscn1)N1CC(N2CCN(C(=O)c3cc4cc(Br)cnc4o3)CC2)C1 [Cpd 1449],,,> 16.7,3.19,
O=C(c1cscn1)N1CCN(C2CN(C(=O)c3cc4nc(C(F)(F)F)ccc4[nH]3)C2)CC1 [Cpd 1450],,12.6,> 16.7,,
Cc1cc2nc(C(=O)N3CC(N4CCN(C(=O)c5ccc[nH]5)CC4)C3)cn2cc1Br [Cpd 1451],,> 16.2,> 16.7,,
O=C(c1cn2cc(C(F)(F)F)ccc2n1)N1CC(N2CCN(C(=O)c3nccs3)CC2)C1 [Cpd 1453],,10,> 16.7,,
O=C(c1nccs1)N1CCN(C2CN(C(=O)c3ncoc3-c3ccc(Cl)cc3)C2)CC1 [Cpd 1473],,,> 16.7,6.67,
O=C(c1nc2cc(-c3cccnc3F)ccc2[nH]1)N1CC(N2CCN(C(=O)c3nccs3)CC2)C1 [Cpd 1476],,7.21,> 16.7,,
"O=C(c1ccccc1)N1CCN(C2CN(C(=O)c3ccc(N4CCOCC4)nc3)C2)CC1 [Cpd 1485, 4-[5-({3-[4-(Phenylcarbonyl)piperazin-1-yl]azetidin-1-yl}carbonyl)pyridin-2-yl]morpholine]",,,> 16.7,,Kd (mutant MGL; [3]): 10 µM
CC(=O)N1CC[C@@H](c2ccccc2C(=O)N2CC(N3CCN(C(=O)c4ccccc4)CC3)C2)C1 [Cpd 1486],,,> 16.7,> 31.2,
Cc1c(C(=O)N2CC(N3CCN(C(=O)c4ccccc4)CC3)C2)oc2ccc(F)cc12 [Cpd 1490],,,> 16.7,> 31.2,
O=C(c1ccccc1)N1CCN(C2CN(C(=O)c3cc4cc(Cl)ccc4o3)C2)CC1 [Cpd 1491],,,> 16.7,12.5,
